Experimental data taken from ChEMBL document CHEMBL1121455, “N-(alpha-Hydroxyalkanoyl) derivatives of Leu-Val-Phe-OCH3 as inhibitors of renin” (J Med Chem, 1980).
Residues, ends and D or L forms follow the SMILES beside them.

Target: T1, Renin (Homo sapiens, UniProt P00797)
T1 sequence (P00797 whole entry): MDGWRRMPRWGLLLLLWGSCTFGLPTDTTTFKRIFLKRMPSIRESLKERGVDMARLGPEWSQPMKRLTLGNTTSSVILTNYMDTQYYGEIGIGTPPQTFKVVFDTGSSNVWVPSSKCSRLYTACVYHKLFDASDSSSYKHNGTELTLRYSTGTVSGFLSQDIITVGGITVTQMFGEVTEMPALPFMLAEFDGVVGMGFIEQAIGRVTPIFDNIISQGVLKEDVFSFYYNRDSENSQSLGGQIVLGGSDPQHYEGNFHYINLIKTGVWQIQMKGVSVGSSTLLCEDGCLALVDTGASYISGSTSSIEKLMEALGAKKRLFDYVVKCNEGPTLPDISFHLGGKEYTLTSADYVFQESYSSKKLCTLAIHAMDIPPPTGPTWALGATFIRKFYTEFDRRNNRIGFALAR
Assay: Inhibition of human amniotic renin was tested and determined by Dixon plots

Point of comparison: `COC(=O)[C@H](Cc1ccccc1)NC(=O)[C@@H](NC(=O)[C@H](CC(C)C)NC(=O)[C@H](O)C(C)C)C(C)C`, Ki 1780 µM. Against it:
- COC(=O)[C@H](Cc1ccccc1)NC(=O)[C@@H](NC(=O)[C@H](CC(C)C)NC(=O)[C@@H](O)CC(C)C)C(C)C — 7.7-fold lower, 230 µM
- COC(=O)[C@H](Cc1ccccc1)NC(=O)[C@@H](NC(=O)[C@H](CC(C)C)NC(=O)[C@@H](O)C(C)C)C(C)C — 5.9-fold lower, 300 µM
- COC(=O)[C@H](Cc1ccccc1)NC(=O)[C@@H](NC(=O)[C@H](CC(C)C)NC(=O)[C@H](O)c1ccccc1)C(C)C — 1.8-fold lower, 980 µM
- COC(=O)[C@H](Cc1ccccc1)NC(=O)[C@@H](NC(=O)[C@H](CC(C)C)NC(=O)[C@@H](O)c1ccccc1)C(C)C — 3.4-fold lower, 530 µM
- COC(=O)[C@H](Cc1ccccc1)NC(=O)[C@@H](NC(=O)[C@H](CC(C)C)NC(=O)[C@H](O)CC(C)C)C(C)C — 3-fold lower, 600 µM
- COC(=O)[C@H](Cc1ccccc1)NC(=O)[C@@H](NC(=O)[C@H](CC(C)C)NC(=O)[C@@H](N)CC(C)C)C(C)C (HELM PEPTIDE1{L.L.V.F.[CO[*:1]]}$$$$V2.0) — 1.6-fold lower, 1140 µM
- COC(=O)[C@H](Cc1ccccc1)NC(=O)[C@@H](NC(=O)[C@H](CC(C)C)NC(=O)[C@@H](O)Cc1ccccc1)C(C)C (HELM PEPTIDE1{[O=C([C@@H](O)Cc1ccccc1)[*:2]].L.V.F.[CO[*:1]]}$$$$V2.0) — 2.7-fold lower, 670 µM
